Measurements from patent publication US11673901B2, “Polycyclic compounds as allosteric SHP2 inhibitors” (Revolution Medicines, Inc., priority 2017, dated 2023).
pIC50: −log10 of the molar value.

Target: SHP2 (Homo sapiens (Human), UniProt Q06124)
Assay: SHP2 allosteric inhibition assay (DiFMUP prompt fluorescence)
Type: biochemical
Details: 0.2 nM SHP2 activated with 0.5 μM Activating Peptide 1 or 2, substrate DiFMUP
Source text: Without wishing to be bound by theory, SHP2 is allosterically activated through binding of bis-tyrosyl-phosphorylated peptides to its Src Homology 2 (SH2) domains. The latter activation step leads to the release of the auto-inhibitory interface of SHP2, which in turn renders the SHP2 protein tyrosine phosphatase (PTP) active and available for substrate recognition and reaction catalysis. The catalytic activity of SHP2 was monitored using the surrogate substrate DiFMUP in a prompt fluorescence assay format.
The phosphatase reactions were performed at room temperature in 96-well black polystyrene plate, flat bottom, non-binding surface (Corning, Cat #3650) using a final reaction volume of 100 μL and the following assay buffer conditions: 50 mM HEPES, pH 7.2, 100 mM NaCl, 0.5 mM EDTA, 0.05% P-20, 1 mM DTT.
The inhibition of SHP2 by compounds of the invention (concentrations varying from 0.00005-10 μM) was monitored using an assay in which 0.2 nM of SHP2 was incubated with 0.5 μM of Activating Peptide 1 (sequence: H2N-LN(pY)IDLDLV(dPEG8)LST(pY)ASINFQK-amide) or Activating Peptide 2 (sequence: H2N-LN(pY)AQLWHA(dPEG8)LTI(pY)ATIRRF-amide). After 30-60-minutes incubation at 25° C., the surrogate substrate DiFMUP (Invitrogen, Cat #D6567) was added to the reaction and activity was determined by a kinetic read using a microplate reader (Envision, Perkin-Elmer or Spectramax M5, Molecular Devices). The excitation and emission wavelengths were 340 nm and 450 nm, respectively. Initial rates were determined from a linear fit of the data, and the inhibitor dose response curves were analyzed using normalized IC50 regression curve fitting with control based normalization.

SMILES	pIC50 (Table 2, class symbols)	pIC50 (Table 1)
Cc1nc(N2CCC3(CC2)CO[C@@H](C)[C@H]3N)n2ccnc2c1-c1ccn2ccnc2c1 [Compound 51, (3S,4S)-8-(8-imidazo[1,2-a]pyridin-7-yl-7-methyl-imidazo[1,2-c]pyrimidin-5-yl)-3-methyl-2-oxa-8-azaspiro[4.5]decan-4-amine]	6.30 to 7.30	–
Nc1nccc(Sc2cnc(N[C@H]3CC[C@@H](O)C3)n3ccnc23)c1Cl [Compound 80]	< 6.30	–
Nc1nccc(Sc2cnc(N3CC[C@@H](N)C3)n3ccnc23)c1Cl [Compound 28, 4-({5-[(3R)-3-aminopyrrolidin-1-yl]imidazo[1,2-c]pyrimidin-8-yl}sulfanyl)-3-chloropyridin-2-amine]	< 6.30	–
N[C@@H]1CCCC12CCN(c1ccc(-c3cccc(Cl)c3Cl)c3cncn13)CC2 [Compound 5, (1R)-8-[8-(2,3-dichlorophenyl)imidazo[1,5-a]pyridin-5-yl]-8-azaspiro[4.5]decan-1-amine]	< 6.30	–
C[C@@H]1OCC2(CCN(c3ncc(-c4ccnc5[nH]ccc45)c4nccn34)CC2)[C@@H]1N [Compound 59, (3S,4S)-3-methyl-8-(8-{1H-pyrrolo[2,3-b]pyridin-4-yl}imidazo[1,2-c]pyrimidin-5-yl)-2-oxa-8-azaspiro[4.5]decan-4-amine]	< 6.30	–
Nc1nccc(Sc2cnc(N3CCNCC3)n3ccnc23)c1Cl [Compound 27, 3-chloro-4-{[5-(piperazin-1-yl)imidazo[1,2-c]pyrimidin-8-yl]sulfanyl}pyridin-2-amine]	< 6.30	–
C[C@@H]1OCC2(CCN(c3ncc(-c4ccnc(N)c4Cl)c4nccn34)CC2)[C@@H]1N [Compound 60, (3S,4S)-8-[8-(2-amino-3-chloropyridin-4-yl)imidazo[1,2-c]pyrimidin-5-yl]-3-methyl-2-oxa-8-azaspiro[4.5]decan-4-amine]	< 6.30	–
Nc1nccc(Sc2cnc(N3CCC[C@H]3CO)n3ccnc23)c1Cl [Compound 67]	< 6.30	–
Cc1nc(N2CCC3(CC2)CO[C@@H](C)[C@H]3N)n2cnnc2c1-c1cccc(Cl)c1Cl [Compound 6 (Example 6)]	–	8.00
Nc1nccc(Sc2cnc(NCCO)n3ccnc23)c1Cl [Compound 73]	< 6.30	–
CC1(N)CCN(c2ncc(Sc3ccnc(N)c3Cl)c3nccn23)CC1 [Compound 2 (Example 2)]	–	6.92
Nc1nccc(Sc2cnc(N3CCOCC3)n3ccnc23)c1Cl [Compound 68]	< 6.30	–
COc1cccc(-c2cnc(N3CCC4(CC3)CO[C@@H](C)[C@H]4N)n3ccnc23)c1Cl [Compound 57, (3S,4S)-8-[8-(2-chloro-3-methoxyphenyl)imidazo[1,2-c]pyrimidin-5-yl]-3-methyl-2-oxa-8-azaspiro[4.5]decan-4-amine]	6.30 to 7.30	–
Nc1nccc(Sc2cnc(O[C@H]3CC[C@@H](N)C3)n3ccnc23)c1Cl [Compound 81, 4-[(5-{[(1S,3R)-3-aminocyclopentyl]oxy}imidazo[1,2-c]pyrimidin-8-yl)sulfanyl]-3-chloropyridin-2-amine]	< 6.30	–
Cc1nc(N2CCC3(CC2)CO[C@@H](C)[C@H]3N)n2ccnc2c1-c1cccc(C#N)c1Cl [Compound 45, 3-{5-[(3S,4S)-4-amino-3-methyl-2-oxa-8-azaspiro[4.5]decan-8-yl]-7-methylimidazo[1,2-c]pyrimidin-8-yl}-2-chlorobenzonitrile]	≥ 7.30	–

The remaining lines, values ahead:

pIC50 (Table 2, class symbols)	pIC50 (Table 1)	SMILES
≥ 7.30	–	Cc1nc(N2CCC3(CC2)CO[C@@H](C)[C@H]3N)n2ccnc2c1-c1cc2ccccc2n1C [Compound 40, (3S,4S)-3-methyl-8-[7-methyl-8-(1-methyl-1H-indol-2-yl)imidazo[1,2-c]pyrimidin-5-yl]-2-oxa-8-azaspiro[4.5]decan-4-amine]
≥ 7.30	–	C[C@@H]1OCC2(CCN(c3ncc(Sc4ccnc(N5CC(O)C5)c4Cl)c4nccn34)CC2)[C@@H]1N [Compound 10, 1-[4-({5-[(3S,4S)-4-amino-3-methyl-2-oxa-8-azaspiro[4.5]decan-8-yl]imidazo[1,2-c]pyrimidin-8-yl}sulfanyl)-3-chloropyridin-2-yl]azetidin-3-ol]
≥ 7.30	–	Cc1nc(N2CCC3(CC2)CO[C@@H](C)[C@H]3N)n2ccnc2c1-c1cccc2c(F)c[nH]c12 [Compound 55, (3S,4S)-8-[8-(3-fluoro-1H-indol-7-yl)-7-methylimidazo[1,2-c]pyrimidin-5-yl]-3-methyl-2-oxa-8-azaspiro[4.5]decan-4-amine]
≥ 7.30	–	Cc1nc(N2CCC3(CC2)CO[C@@H](C)[C@H]3N)n2ccnc2c1-c1ccc2cn[nH]c2c1 [Compound 30, (3S,4S)-8-[8-(2H-indazol-6-yl)-7-methylimidazo[1,2-c]pyrimidin-5-yl]-3-methyl-2-oxa-8-azaspiro[4.5]decan-4-amine]
≥ 7.30	–	Cc1nc(N2CCC3(CC2)CO[C@@H](C)[C@H]3N)n2ccnc2c1-c1cc(Cl)c2cn[nH]c2c1 [Compound 37, (3S,4S)-8-[8-(4-chloro-2H-indazol-6-yl)-7-methylimidazo[1,2-c]pyrimidin-5-yl]-3-methyl-2-oxa-8-azaspiro[4.5]decan-4-amine]
≥ 7.30	–	COc1cc(Cl)c(Cl)c(-c2c(C)nc(N3CCC4(CC3)CO[C@@H](C)[C@H]4N)n3ccnc23)c1 [Compound 49, (3S,4S)-8-[8-(2,3-dichloro-5-methoxyphenyl)-7-methylimidazo[1,2-c]pyrimidin-5-yl]-3-methyl-2-oxa-8-azaspiro[4.5]decan-4-amine]
